For one assay, the system named is Staphylococcus aureus. Nature of the assay: Antimicrobial activity against Staphylococcus aureus ATCC […] assessed as growth inhibition by agar dilution-streak method. Type of assay: functional. (Agar dilution tests growth on a series of plates holding different concentrations.)
For the next assay, the system named is Escherichia coli. As to the kind of experiment: Antimicrobial activity against Escherichia coli 9637 assessed as growth inhibition by agar dilution-streak method. The format is functional.
The next assay deals with Klebsiella pneumoniae. Nature of the assay: Antimicrobial activity against Klebsiella pneumoniae 10031 assessed as growth inhibition by agar dilution-streak method. Type of assay: functional.
In assay [1] the test system is Mycolicibacterium smegmatis. As to the kind of experiment: Antimicrobial activity against Mycobacterium smegmatis 607 assessed as growth inhibition by agar dilution-streak method. The format is functional.
In another assay the test system is Candida albicans. As to the kind of experiment: Antimicrobial activity against Candida albicans 10231 assessed as growth inhibition by agar dilution-streak method. The format is functional.
Another assay concerns Salmonella gallinarum. As to the kind of experiment: Antimicrobial activity against Salmonella gallinarum 9184 assessed as growth inhibition by agar dilution-streak method.

Here are results for 7 compounds from ChEMBL document CHEMBL3244129, “Quinolone antimicrobial agents. 1. Versatile new synthesis of 1-alkyl-1,4-dihydro-4-oxo-3-quinolinecarboxylic acids” (1978).

Each structure is given as a SMILES string. Values after ≈ are worked out from the molar mass of the structure shown.

`CCn1cc(C(=O)O)c(=O)c2cccc(C)c21`: the MIC (in the assay on Staphylococcus aureus; in the assay with Escherichia coli; with Klebsiella pneumoniae; in assay [1]; with Candida albicans; with Salmonella gallinarum) was over 100 µg/mL throughout.

As for `CCn1c(C)c(C(=O)O)c(=O)c2cc3c(cc21)OCO3`, the MIC (in the assay on Staphylococcus aureus; in the assay with Escherichia coli; in the assay on Klebsiella pneumoniae; in assay [1]; in the assay with Candida albicans; in the assay on Salmonella gallinarum) was over 100 µg/mL throughout.

With `CCn1cc(C(=O)O)c(=O)c2cc3c(cc21)OCO3` [OXOLINIC ACID], the MIC – broadly, the least concentration at which growth counts as inhibited – was 5 µg/mL (≈ 19.1 µM) with Staphylococcus aureus; 1.25 µg/mL (≈ 4.79 µM) with Escherichia coli; under 0.625 µg/mL in the assay with Klebsiella pneumoniae; over 40 µg/mL in assay [1]; over 40 µg/mL in the assay on Candida albicans; 1.25 µg/mL (≈ 4.79 µM) in the assay with Salmonella gallinarum.

As for `CCn1cc(C(=O)O)c(=O)c2ccc(C)cc21`, the MIC in the assay on Staphylococcus aureus is 40 µg/mL (≈ 173 µM); in the assay on Escherichia coli, 2.5 µg/mL (≈ 10.8 µM); in the assay with Klebsiella pneumoniae it was 10 µg/mL (≈ 43.2 µM); in assay [1], over 100 µg/mL; in the assay on Candida albicans, over 100 µg/mL; in the assay on Salmonella gallinarum it was 1.25 µg/mL (≈ 5.41 µM).

In the case of `CCn1cc(C(=O)O)c(=O)c2cc(C)ccc21`, the MIC in the assay on Staphylococcus aureus was 40 µg/mL (≈ 173 µM); in the assay with Escherichia coli, 20 µg/mL (≈ 86.5 µM); in the assay on Klebsiella pneumoniae it was over 100 µg/mL; in assay [1] it was over 100 µg/mL; in the assay on Candida albicans, over 100 µg/mL; with Salmonella gallinarum, 20 µg/mL (≈ 86.5 µM).

With `CCn1c(O)c(C(=O)O)c(=O)c2cc3c(cc21)OCO3`, the MIC (in the assay with Staphylococcus aureus; with Escherichia coli; in the assay with Klebsiella pneumoniae; in assay [1]; in the assay with Candida albicans; in the assay on Salmonella gallinarum) was over 100 µg/mL each time.

As for `CCn1cc(C(=O)O)c(=O)c2cc(Cl)ccc21`, the minimum inhibitory concentration (MIC) in the assay with Staphylococcus aureus is 100 µg/mL (≈ 397 µM); with Escherichia coli it was 20 µg/mL (≈ 79.5 µM); in the assay with Klebsiella pneumoniae, 10 µg/mL (≈ 39.7 µM); in assay [1], 100 µg/mL (≈ 397 µM); in the assay on Candida albicans, over 40 µg/mL; in the assay on Salmonella gallinarum, 20 µg/mL (≈ 79.5 µM).
